# Reference: PMC4203866, “Identification of plant-derived natural products as potential inhibitors of the Mycobacterium tuberculosis proteasome” (BMC Complementary and Alternative Medicine, 2014)
# Where a SMILES comes first, the peptide text is derived from it. The star is where a group is joined. Cbz = O=C(OCc1ccccc1)*
# Molecular target: T1, Mtb proteasome (Mycobacterium tuberculosis, UniProt P9WHT9)
# T1 construct: Proteasome activity of the supernatants was assessed; endogenous in cells; host or cells: Mycobacterium tuberculosis H37Ra (crude lysate supernatant)
# T1 sequence (P9WHT9 58-291): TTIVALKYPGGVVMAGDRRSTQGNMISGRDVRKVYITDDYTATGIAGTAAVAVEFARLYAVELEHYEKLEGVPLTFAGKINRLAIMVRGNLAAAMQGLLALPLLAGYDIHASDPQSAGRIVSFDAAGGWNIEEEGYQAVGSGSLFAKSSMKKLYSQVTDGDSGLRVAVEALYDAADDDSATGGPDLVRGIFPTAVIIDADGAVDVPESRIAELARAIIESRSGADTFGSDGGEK
# T1 sequence (P9WHU1 whole entry partner): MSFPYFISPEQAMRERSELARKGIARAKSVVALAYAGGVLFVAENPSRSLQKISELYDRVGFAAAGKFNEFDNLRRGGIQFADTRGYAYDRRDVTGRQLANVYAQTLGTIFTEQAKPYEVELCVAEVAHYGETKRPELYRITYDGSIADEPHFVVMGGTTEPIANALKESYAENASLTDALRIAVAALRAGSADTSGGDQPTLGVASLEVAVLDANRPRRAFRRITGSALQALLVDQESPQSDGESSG
# Test: biochemical
# Details: not given
Compound,IC50,IA: inhibitory activity of Mtb proteasome
"CC(C)C[C@@H](C=O)NC(=O)[C@H](CC(C)C)NC(=O)[C@H](CC(C)C)NC(=O)OCc1ccccc1 [MG132, reference compound] (Cbz-Leu-Leu-Leu-aldehyde)",28 µM,–
CC1=C(O)C(=O)C=C2C1=CC=C1[C@@]2(C)CC[C@@]2(C)[C@@H]3C[C@](C)(C(=O)O)CC[C@]3(C)CC[C@]12C [tripterine],114 µM,–
COc1ccc(-c2cc(=O)c3c(O)c(OC)c(O[C@@H]4O[C@H](CO[C@@H]5O[C@@H](C)[C@H](O)[C@@H](O)[C@H]5O)[C@@H](O)[C@H](O)[C@H]4O)cc3o2)cc1 [pectolinarin],50 µM,–
O=c1oc2c(O)c(O)cc3c(=O)oc4c(O)c(O)cc1c4c23 [gallogen],–,62.50%
C/C=C(/C)C(=O)O[C@H]1[C@@H](OC(C)=O)c2c(ccc3ccc(=O)oc23)OC1(C)C [praeruptorin A],–,0.00%
COc1ccc2cc1Oc1ccc(cc1)C[C@H]1c3cc(c(OC)cc3CCN1C)Oc1c(O)c(OC)cc3c1[C@H](C2)N(C)CC3 [hanfangchin B],–,0.00%
C[C@H]1CC[C@@H]2N(C1)C[C@H]1[C@@H]3C[C@H]4[C@@H](C[C@H](O)[C@H]5C[C@@H](O)CC[C@@]54C)[C@@H]3CC[C@@H]1[C@]2(C)O [peimine],–,3.05%
O=c1c(O)c(-c2cc(O)c(O)c(O)c2)oc2cc(O)cc(O)c12 [myricetin],55.4 µM,–
COc1cc2ccc(=O)oc2c(O[C@@H]2O[C@H](CO)[C@@H](O)[C@H](O)[C@H]2O)c1O [fraxin],–,0.00%
O=C(O[C@@H]1Cc2c(O)cc(O)cc2O[C@@H]1c1cc(O)c(O)c(O)c1)c1cc(O)c(O)c(O)c1 [epigallocatechin gallate],–,45.21%
COC(=O)c1c2c(c3ccccc3c1O)OC(C)(C)C=C2 [rubimaillin],–,46.37%
C=C1C(=O)O[C@@H]2C[C@@]3(C)CCC[C@H](C)C3=C[C@H]12 [alantolactone],–,32.12%
COc1ccc([C@H]2OC[C@H]3[C@@H]2CO[C@H]3c2ccc(O[C@@H]3O[C@H](CO)[C@@H](O)[C@H](O)[C@H]3O)c(OC)c2)cc1OC [forsythin],–,20.02%
O=C(/C=C/c1ccc(O)cc1)c1ccc(O)cc1O [isoliquiritigenin],63.9 µM,–
C=C1C[C@@]2(O)O[C@@]3(C[C@H]2C(C)C)[C@@H](C)CC[C@@H]13 [curcumol],–,34.66%
COc1c(O)cc2oc(-c3ccc(O)cc3)cc(=O)c2c1O [hispidulin],58.3 µM,–
O=c1c(O)c(-c2ccc(O)cc2)oc2cc(O)cc(O)c12 [kaempferol],107 µM,–

# Same assay, conditions: 0.5 h, read-out: IA: inhibitory activity of Mtb proteasome
row,Compound,inhibition at 200 µM
1,O=c1cc(-c2ccc(O)cc2)oc2cc(O)cc(O)c12 [apigenin],0%
2,CC1=C(O)C(=O)C=C2C1=CC=C1[C@@]2(C)CC[C@@]2(C)[C@@H]3C[C@](C)(C(=O)O)CC[C@]3(C)CC[C@]12C [tripterine],> 65%
3,C=C1CC[C@@H]2[C@](C)(CO)[C@H](O)CC[C@@]2(C)[C@@H]1C/C=C1/C(=O)OC[C@H]1O [andrographolide],0%
4,O=C1c2ccccc2C(=O)c2c1ccc(O)c2O [alizarin],0%
5,CC(=O)OC(C)(C)CCC(=O)[C@](C)(O)[C@H]1[C@H](O)C[C@@]2(C)[C@@H]3CC=C4[C@@H](C[C@H](O)[C@@H](O)C4(C)C)[C@]3(C)C(=O)C[C@]12C [hemslecin A],0%
6,COC1=C[C@@H]2[C@@H]3Cc4ccc(OC)c(O)c4[C@]2(CCN3C)CC1=O [sinomenine],3.77%
7,O=c1c2cc(O)c(O)cc2oc2cc(O)c([C@@H]3O[C@H](CO)[C@@H](O)[C@H](O)[C@H]3O)c(O)c12 [mangiferin],31.9%
8,O=c1c(O)c(-c2cc(O)c(O)c(O)c2)oc2cc(O)cc(O)c12 [myricetin],> 65%
9,CC(C)=CC[C@H](O)C1=CC(=O)c2c(O)ccc(O)c2C1=O [alkannin],52.4%
10,OCc1ccccc1O[C@@H]1O[C@H](CO)[C@@H](O)[C@H](O)[C@H]1O [salicin],0%
11,C=C[C@@H]1C2=CCOC(=O)C2=CO[C@H]1O[C@@H]1O[C@H](CO)[C@@H](O)[C@H](O)[C@H]1O [gentiopicroside],0%
12,CC[C@@]1(O)C(=O)OCc2c1cc1n(c2=O)Cc2cc3ccccc3nc2-1 [camptothecin],0%
13,Nc1ncnc2c1ncn2[C@@H]1O[C@H](CO)C[C@H]1O [cordycepin],7.77%
14,O=C(/C=C/c1ccc(O)cc1)c1ccc(O)cc1O [isoliquiritigenin],> 65%
15,COc1cc(C(=O)O)cc(OC)c1O [syringic acid],0%
16,COc1ccc(-c2cc(=O)c3c(O)c(OC)c(O)c(OC)c3o2)cc1 [nevadensin],48%
17,O=C1CCC[C@@H]2[C@H]3CCCN4CCC[C@H](CN12)[C@@H]34 [sophoridine],11.8%

row,Compound,inhibition at 200 µM
1,COC(=O)C1=CO[C@@H](O[C@@H]2O[C@H](CO)[C@@H](O)[C@H](O)[C@H]2O)[C@@H]2C(CO)=CC[C@H]12 [geniposide],0%
2,COc1cc(/C=C/C(=O)CC(=O)/C=C/c2ccc(O)c(OC)c2)ccc1O [curcumin],> 65%
3,COc1ccc2ccc(=O)oc2c1CC=C(C)C [osthole],0%
4,O=c1c(-c2ccc(O)cc2)coc2c([C@@H]3O[C@H](CO)[C@@H](O)[C@H](O)[C@H]3O)c(O)ccc12 [puerarin],0%
5,COc1ccc2cc3[n+](cc2c1OC)CCc1cc2c(cc1-3)OCO2 [berberine],0%
6,COc1ccc(-c2cc(=O)c3c(O)cc(O)cc3o2)cc1O [diosmetin],0%
7,Oc1ccc(/C=C/c2cc(O)cc(O)c2)cc1 [resveratrol],0%
8,COc1c(O)cc2oc(-c3ccc(O)cc3)cc(=O)c2c1O [hispidulin],> 65%
9,O=C(/C=C/c1ccc(O)c(O)c1)O[C@@H]1C[C@](O)(C(=O)O)C[C@@H](O)[C@H]1O [chlorogenic acid],0%
10,C[C@@]12C[C@@]3(O)O[C@@H](O1)[C@]1(COC(=O)c4ccccc4)[C@H]3C[C@@]12O[C@@H]1O[C@H](CO)[C@@H](O)[C@H](O)[C@H]1O [paeoniflorin],3.05%
11,COc1c(O[C@@H]2O[C@H](CO)[C@@H](O)[C@H](O)[C@H]2O)cc2occ(-c3ccc(O)cc3)c(=O)c2c1O [tectoridin],0%
12,COc1cc2ccc(=O)oc2cc1OC [scoparone],0%
13,O=c1c(O)c(-c2ccc(O)cc2)oc2cc(O)cc(O)c12 [kaempferol],> 65%
14,O=C1C[C@@H]2OCC=C3CN4CC[C@]56c7ccccc7N1[C@H]5[C@H]2[C@H]3C[C@H]46 [strychnine],0%
15,CC(C)=CCOc1c2occc2cc2ccc(=O)oc12 [imperatorin],15.9%
16,O=c1ccc2ccc(O)c(O)c2o1 [daphnetin],0%

# Same assay, conditions: read-out: IA: inhibitory activity of Mtb proteasome
row,Compound,inhibition at 100 µM
1,"CC(C)C[C@@H](C=O)NC(=O)[C@H](CC(C)C)NC(=O)[C@H](CC(C)C)NC(=O)OCc1ccccc1 [MG132, reference compound] (Cbz-Leu-Leu-Leu-aldehyde)",79.7%
